From ChEMBL document CHEMBL1141537, “Design and synthesis of dihydroindazolo[5,4-a]pyrrolo[3,4-c]carbazole oximes as potent dual inhibitors of TIE-2 and VEGF-R2 receptor tyrosine kinases” (Bioorg Med Chem Lett, 2008) come the findings set out here.

The target of data set [1] is Angiopoietin-1 receptor (Homo sapiens, UniProt Q02763). Put plainly: Inhibition of human recombinant TIE2 by HTRF assay.
Data set [2] in a line: Oral bioavailability in rat at 5 mg/kg. In kind it is ADME, organism-based. The settings on record: in vivo.
The target of data set [3] is Vascular endothelial growth factor receptor 2 (Homo sapiens, UniProt P35968). The experiment in a line: Inhibition of human recombinant VEGFR2 by HTRF assay.
Data set [4] is described as follows: Half life in rat at 5 mg/kg, po. In kind it is ADME, organism-based. Further details: dose 5 mg/kg, route oral. Conditions: in vivo.
A short description of data set [5]: AUC (0 to infinity) in rat at 1 mg/kg, iv. Further details: time infinity, dose 1 mg/kg, route intravenous. Conditions: plasma. In kind it is ADME, organism-based.
Data set [6] addresses Insulin receptor (Homo sapiens, UniProt P06213). Put plainly: Inhibition of IR.
Data set [7] in a line: AUC (0 to infinity) in rat at 5 mg/kg, po. In kind it is ADME, organism-based. Further details: time infinity, dose 5 mg/kg, route oral. The settings on record: plasma.
Data set [8] concerns the target Epidermal growth factor receptor (Homo sapiens, UniProt P00533). The experiment in a line: Inhibition of EGFR.
Data set [9] concerns the target Proto-oncogene tyrosine-protein kinase Src (Homo sapiens, UniProt P12931). The experiment in a line: Inhibition of c-src.
Data set [10] in a line: Cmax in rat at 5 mg/kg, po. In kind it is ADME, organism-based. Further details: dose 5 mg/kg, route oral. Conditions: in vivo.
Data set [11] can be described thus: Volume of distribution in rat at 1 mg/kg, iv. In kind it is ADME, organism-based. Further details: dose 1 mg/kg, route intravenous. Conditions: in vivo.
The nature of data set [12]: Clearance in rat at 1 mg/kg, iv. In kind it is ADME, organism-based. Further details: dose 1 mg/kg, route intravenous. Conditions: in vivo.
A short description of data set [13]: Half life in rat at 1 mg/kg, iv. Further details: dose 1 mg/kg, route intravenous. Conditions: in vivo. In kind it is ADME, organism-based.
In data set [14] the test system is Mus musculus. The experiment in a line: Toxicity in A375 cells xenografted mouse melanoma model assessed as mortality. In kind it is organism-based, A-375. Conditions: in vivo.
Data set [15] relates to A-375. The experiment in a line: Antitumor activity against human A375 cells xenografted mouse assessed as tumor growth inhibition at 10 mg/kg, po bid relative to control. In kind it is functional. Further details: scale not given: the % may be the effect or the level left. (In xenograft studies the graft and the host belong to different species.)
For data set [16], the species on record is Rattus norvegicus. Put plainly: Ex vivo antiangiogenic activity in rat aortic ring explant assessed as inhibition of microvessel outgrowth after 10 days. In kind it is functional. The settings on record: Aorta, 240 h.
Data set [17] relates to A-375. The experiment in a line: Antitumor activity against human A375 cells xenografted mouse assessed as partial tumor regression at 10 mg/kg, po bid relative to control. In kind it is functional.
Data set [18] deals with Vascular endothelial growth factor receptor 3 (Homo sapiens, UniProt P35916). The experiment in a line: Inhibition of VEGFR3.
Data set [19] deals with Vascular endothelial growth factor receptor 1 (Homo sapiens, UniProt P17948). The experiment in a line: Inhibition of VEGFR1.
In data set [20] the test system is HUVEC. The experiment in a line: Inhibition of VEGF-induced HUVEC cells capillary tube formation relative to control. In kind it is functional, cell-based. The settings on record: Homo sapiens.
Data set [21] has as its system HUVEC. Put plainly: Cytotoxicity against HUVEC cells. In kind it is cell-based. Conditions: human.
Data set [22] deals with A-375. The experiment in a line: Cytotoxicity against human A375 cells. In kind it is functional, cell-based.

Bounds are passed on as bounds.

As a reminder, the IC50 is the concentration that inhibits the measured activity by half. A word on the bioavailability: it is the share of a dose that reaches the circulation, judged against a reference dose that is usually intravenous. By half-life is commonly meant the time in which the quantity being followed falls by half. The term AUC(0-inf) denotes the area under the concentration-time curve extrapolated to infinity. The Cmax is the peak of the concentration-time curve. One may read the Vd as a proportionality between amount in the body and measured concentration, not a real space. A word on the clearance: it is a measure of how efficiently the substance is removed, as volume per time. As usually defined, the EC50 is the concentration giving half of the maximal effect.

Chain of Angiopoietin-1 receptor (Q02763 whole entry): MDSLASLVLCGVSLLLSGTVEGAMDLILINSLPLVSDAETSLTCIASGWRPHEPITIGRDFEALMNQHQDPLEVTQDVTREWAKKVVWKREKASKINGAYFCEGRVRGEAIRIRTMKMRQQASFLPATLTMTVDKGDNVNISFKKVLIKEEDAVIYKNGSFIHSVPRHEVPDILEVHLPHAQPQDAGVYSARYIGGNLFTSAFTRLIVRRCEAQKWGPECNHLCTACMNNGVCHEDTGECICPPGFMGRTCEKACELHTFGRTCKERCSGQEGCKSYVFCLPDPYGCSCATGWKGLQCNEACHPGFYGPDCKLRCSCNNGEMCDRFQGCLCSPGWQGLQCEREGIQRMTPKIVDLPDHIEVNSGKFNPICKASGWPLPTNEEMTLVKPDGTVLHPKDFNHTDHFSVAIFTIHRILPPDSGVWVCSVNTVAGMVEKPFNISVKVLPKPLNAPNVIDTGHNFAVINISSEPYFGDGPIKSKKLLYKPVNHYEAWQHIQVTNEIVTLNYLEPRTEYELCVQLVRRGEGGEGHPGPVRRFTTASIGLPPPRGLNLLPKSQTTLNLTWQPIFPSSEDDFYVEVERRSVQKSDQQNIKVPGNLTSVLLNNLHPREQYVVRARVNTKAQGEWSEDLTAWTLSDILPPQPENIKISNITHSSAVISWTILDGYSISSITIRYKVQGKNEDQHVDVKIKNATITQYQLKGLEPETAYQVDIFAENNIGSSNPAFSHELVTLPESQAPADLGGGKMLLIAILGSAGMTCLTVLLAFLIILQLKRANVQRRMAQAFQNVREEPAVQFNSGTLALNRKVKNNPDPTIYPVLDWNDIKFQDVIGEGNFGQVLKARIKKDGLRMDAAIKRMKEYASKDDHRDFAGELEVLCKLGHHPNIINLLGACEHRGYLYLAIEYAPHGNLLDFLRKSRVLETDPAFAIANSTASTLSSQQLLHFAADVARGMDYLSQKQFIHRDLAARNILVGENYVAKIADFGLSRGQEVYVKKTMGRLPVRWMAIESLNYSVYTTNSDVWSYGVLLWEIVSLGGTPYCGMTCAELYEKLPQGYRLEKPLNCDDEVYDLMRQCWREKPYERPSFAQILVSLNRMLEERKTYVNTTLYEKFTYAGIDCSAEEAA
Chain of Proto-oncogene tyrosine-protein kinase Src (P12931 2-536 limits assumed): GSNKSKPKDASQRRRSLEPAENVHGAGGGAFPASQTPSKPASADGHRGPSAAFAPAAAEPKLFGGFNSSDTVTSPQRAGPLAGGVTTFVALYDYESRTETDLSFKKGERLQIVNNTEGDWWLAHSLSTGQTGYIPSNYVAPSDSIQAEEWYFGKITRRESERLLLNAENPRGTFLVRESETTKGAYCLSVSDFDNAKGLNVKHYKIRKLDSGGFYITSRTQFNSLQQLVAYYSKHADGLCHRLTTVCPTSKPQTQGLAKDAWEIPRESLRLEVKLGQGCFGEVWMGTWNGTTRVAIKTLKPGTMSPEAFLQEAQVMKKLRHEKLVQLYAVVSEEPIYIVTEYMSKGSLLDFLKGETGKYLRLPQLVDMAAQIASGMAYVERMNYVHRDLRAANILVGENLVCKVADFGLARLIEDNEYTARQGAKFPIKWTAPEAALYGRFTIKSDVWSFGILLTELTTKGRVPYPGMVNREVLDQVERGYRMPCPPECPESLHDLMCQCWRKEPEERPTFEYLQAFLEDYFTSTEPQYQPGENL
Chain of Vascular endothelial growth factor receptor 2 (P35968 whole entry): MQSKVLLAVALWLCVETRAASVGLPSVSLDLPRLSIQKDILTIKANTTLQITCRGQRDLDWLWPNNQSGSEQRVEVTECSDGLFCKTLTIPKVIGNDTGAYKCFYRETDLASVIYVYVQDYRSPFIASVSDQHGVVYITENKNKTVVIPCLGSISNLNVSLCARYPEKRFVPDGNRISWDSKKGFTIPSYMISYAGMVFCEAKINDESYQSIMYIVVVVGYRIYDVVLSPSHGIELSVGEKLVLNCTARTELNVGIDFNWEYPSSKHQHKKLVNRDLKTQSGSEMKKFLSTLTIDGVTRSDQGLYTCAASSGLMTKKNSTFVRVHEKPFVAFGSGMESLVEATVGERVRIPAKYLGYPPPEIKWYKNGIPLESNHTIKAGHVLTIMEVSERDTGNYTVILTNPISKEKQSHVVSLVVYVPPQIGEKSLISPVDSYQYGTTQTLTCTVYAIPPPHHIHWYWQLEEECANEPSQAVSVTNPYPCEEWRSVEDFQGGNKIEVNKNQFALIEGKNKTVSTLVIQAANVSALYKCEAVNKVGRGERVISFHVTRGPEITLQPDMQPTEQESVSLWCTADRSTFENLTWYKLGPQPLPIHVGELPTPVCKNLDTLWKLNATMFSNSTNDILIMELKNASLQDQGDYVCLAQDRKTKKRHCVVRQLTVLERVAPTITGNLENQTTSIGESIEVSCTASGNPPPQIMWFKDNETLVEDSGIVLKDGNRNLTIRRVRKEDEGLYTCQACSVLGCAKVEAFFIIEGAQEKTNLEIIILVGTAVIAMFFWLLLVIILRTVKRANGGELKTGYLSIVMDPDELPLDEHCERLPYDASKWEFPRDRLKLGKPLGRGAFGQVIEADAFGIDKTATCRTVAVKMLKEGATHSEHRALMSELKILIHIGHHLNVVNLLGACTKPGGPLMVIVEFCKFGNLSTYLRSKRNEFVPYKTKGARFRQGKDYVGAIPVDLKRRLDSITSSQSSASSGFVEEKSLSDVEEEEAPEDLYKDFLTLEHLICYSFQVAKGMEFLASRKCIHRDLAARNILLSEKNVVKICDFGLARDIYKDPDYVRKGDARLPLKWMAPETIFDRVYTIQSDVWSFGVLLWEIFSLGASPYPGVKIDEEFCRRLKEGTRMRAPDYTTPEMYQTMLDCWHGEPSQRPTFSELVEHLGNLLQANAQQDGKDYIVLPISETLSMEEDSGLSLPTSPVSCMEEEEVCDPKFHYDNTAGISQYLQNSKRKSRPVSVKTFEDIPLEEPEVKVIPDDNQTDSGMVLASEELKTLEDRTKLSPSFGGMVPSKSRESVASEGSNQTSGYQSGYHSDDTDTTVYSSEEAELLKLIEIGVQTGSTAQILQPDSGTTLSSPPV
Chain of Insulin receptor (P06213 28-758 limits assumed): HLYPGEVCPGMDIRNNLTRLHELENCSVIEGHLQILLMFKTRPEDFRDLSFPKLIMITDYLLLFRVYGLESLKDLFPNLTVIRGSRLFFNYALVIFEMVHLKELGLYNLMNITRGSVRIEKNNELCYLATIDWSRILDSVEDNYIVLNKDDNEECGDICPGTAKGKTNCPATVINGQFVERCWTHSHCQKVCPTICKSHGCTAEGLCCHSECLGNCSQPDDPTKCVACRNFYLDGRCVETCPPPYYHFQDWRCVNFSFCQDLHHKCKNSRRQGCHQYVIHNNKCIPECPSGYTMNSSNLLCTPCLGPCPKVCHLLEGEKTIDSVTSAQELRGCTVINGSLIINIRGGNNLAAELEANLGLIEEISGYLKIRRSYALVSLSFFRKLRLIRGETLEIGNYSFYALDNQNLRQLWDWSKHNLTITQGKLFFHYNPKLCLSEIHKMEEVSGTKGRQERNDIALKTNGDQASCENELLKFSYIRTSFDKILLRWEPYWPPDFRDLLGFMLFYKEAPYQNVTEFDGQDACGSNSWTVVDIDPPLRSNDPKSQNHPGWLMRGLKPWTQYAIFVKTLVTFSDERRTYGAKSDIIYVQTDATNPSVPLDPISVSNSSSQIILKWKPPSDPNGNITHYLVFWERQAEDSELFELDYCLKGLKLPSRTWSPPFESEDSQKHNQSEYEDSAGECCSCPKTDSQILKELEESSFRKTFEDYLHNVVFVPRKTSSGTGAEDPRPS
Chain of Insulin receptor (P06213 763-1382 limits assumed): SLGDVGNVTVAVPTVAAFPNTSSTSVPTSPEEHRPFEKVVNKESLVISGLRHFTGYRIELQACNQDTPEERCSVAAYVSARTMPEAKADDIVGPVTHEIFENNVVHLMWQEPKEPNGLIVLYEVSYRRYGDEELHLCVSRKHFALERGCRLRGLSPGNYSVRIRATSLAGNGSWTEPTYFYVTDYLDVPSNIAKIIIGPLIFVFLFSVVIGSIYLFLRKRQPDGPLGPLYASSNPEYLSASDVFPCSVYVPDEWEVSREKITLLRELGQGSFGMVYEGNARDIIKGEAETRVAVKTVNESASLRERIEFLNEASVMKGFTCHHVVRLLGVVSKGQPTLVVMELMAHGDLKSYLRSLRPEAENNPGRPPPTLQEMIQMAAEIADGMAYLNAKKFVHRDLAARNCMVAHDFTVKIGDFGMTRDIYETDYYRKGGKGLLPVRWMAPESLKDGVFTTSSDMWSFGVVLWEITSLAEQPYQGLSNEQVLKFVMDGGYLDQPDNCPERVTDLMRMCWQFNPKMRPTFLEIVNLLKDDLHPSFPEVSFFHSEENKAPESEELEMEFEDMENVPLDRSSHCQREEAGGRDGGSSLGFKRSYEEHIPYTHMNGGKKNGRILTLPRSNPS

Consider `C/C(=N\OC(C)C)c1ccc2[nH]c3c4c(c5c(c3c2c1)CNC5=O)-c1cn(C)nc1CC4`, for which the IC50 in [1] was determined as 28 nM.

For the molecule `CCCn1c2ccc(/C(C)=N/OC)cc2c2c3c(c4c(c21)CCc1nn(C)cc1-4)C(=O)NC3`, the IC50 in data set [1] amounted to 30 nM.

As for `CO/N=C(\C)c1ccc2[nH]c3c4c(c5c(c3c2c1)CNC5=O)-c1cn(C)nc1CC4`, in data set [1], the IC50 was 71 nM.

As to `CCO/N=C(/c1ccc2[nH]c3c4c(c5c(c3c2c1)CNC5=O)-c1cn(C)nc1CC4)C(C)C`, in data set [1], the IC50 turned out to be 92 nM.

`CCO/N=C(\C)c1ccc2[nH]c3c4c(c5c(c3c2c1)CNC5=O)-c1cn(C)nc1CC4`: the IC50 in data set [1] worked out at 23 nM.

Consider `Cn1cc2c(n1)CCc1c-2c2c(c3c1[nH]c1ccccc13)CNC2=O`, for which, in data set [1], the IC50 came to 1300 nM.

For the molecule `CCn1c2ccc(/C(C)=N/OCC(C)C)cc2c2c3c(c4c(c21)CCc1nn(C)cc1-4)C(=O)NC3`, the IC50 in [1] came out at 45 nM.

In the case of `C/C(=N\O)c1ccc2[nH]c3c4c(c5c(c3c2c1)CNC5=O)-c1cn(C)nc1CC4`, the IC50 in [1] is 44 nM.

Regarding `CO/N=C/c1ccc2[nH]c3c4c(c5c(c3c2c1)CNC5=O)-c1cn(C)nc1CC4`, the IC50 in data set [1] is 148 nM.

For `C/C(=N\OCC(C)C)c1ccc2c(c1)c1c3c(c4c(c1n2C(C)C)CCc1nn(C)cc1-4)C(=O)NC3`, in [1], the IC50 is 46 nM.

On to `CCO/N=C(\C)c1ccc2c(c1)c1c3c(c4c(c1n2C(C)C)CCc1nn(C)cc1-4)C(=O)NC3`, for which, in [2], the bioavailability amounted to 31%. Further, the IC50 in data set [3] was 4 nM; in data set [1] it was 26 nM; in data set [6] it was over 1000 nM; in [8], over 1000 nM; in [9] it was 14 nM. Moreover, the half-life in data set [4] is 3.2 h; in [13], 2 h. Moreover, the AUC(0-inf) in data set [5] amounted to 2300 ng·h/mL; in data set [7] it was 3610 ng·h/mL. The highest level in data set [10] (Cmax) was 637 ng/mL. In [11], the Vd was found to be 1.3 L/kg. This molecule gave a clearance in data set [12] of 7.4 mL/min/kg.

In the case of `CO/N=C(/c1ccc2[nH]c3c4c(c5c(c3c2c1)CNC5=O)-c1cn(C)nc1CC4)C(C)C`, the IC50 in data set [1] turned out to be 264 nM.

As to `CCCCn1c2ccc(/C(C)=N/OC)cc2c2c3c(c4c(c21)CCc1nn(C)cc1-4)C(=O)NC3`, the IC50 in data set [1] came to 108 nM.

In the case of `C/C(=N\OC(C)C)c1ccc2c(c1)c1c3c(c4c(c1n2C(C)C)CCc1nn(C)cc1-4)C(=O)NC3`, in data set [1], the IC50 turned out to be 66 nM.

As for `CO/N=C(\C)c1ccc2c(c1)c1c3c(c4c(c1n2C)CCc1nn(C)cc1-4)C(=O)NC3`, the IC50 in data set [1] came to 347 nM.

On to `COc1ccc(-c2oc3ncnc(N)c3c2-c2ccc(NC(=O)Nc3c(F)cccc3C(F)(F)F)cc2)cc1`, for which the IC50 in data set [1] is 2 nM.

On to `C/C(=N\OC(C)C)c1ccc2c(c1)c1c3c(c4c(c1n2CC(C)C)CCc1nn(C)cc1-4)C(=O)NC3`, for which the IC50 in data set [1] was found to be 52 nM.

For `C/C(=N\OCC(C)C)c1ccc2[nH]c3c4c(c5c(c3c2c1)CNC5=O)-c1cn(C)nc1CC4`, in data set [1], the IC50 is 10 nM.

Turning to `CCn1c2ccc(/C(C)=N/OC)cc2c2c3c(c4c(c21)CCc1nn(C)cc1-4)C(=O)NC3`, in data set [1], the IC50 was determined as 300 nM.

As for `CO/N=C(\C)c1ccc2c(c1)c1c3c(c4c(c1n2C(C)C)CCc1nn(C)cc1-4)C(=O)NC3`, the IC50 in data set [1] amounted to 97 nM.

On to `CCO/N=C/c1ccc2[nH]c3c4c(c5c(c3c2c1)CNC5=O)-c1cn(C)nc1CC4`, for which, in data set [1], the IC50 came out at 264 nM.

`CO/N=C(\C)c1ccc2c(c1)c1c3c(c4c(c1n2CC(C)C)CCc1nn(C)cc1-4)C(=O)NC3`: the Activity entry in [14] is “Non-toxic”; in data set [15], 80%; in data set [17], 38%; in data set [21], “Non-toxic”. The molecule also showed a bioavailability in data set [2] of 66%. In addition, the IC50 in [3] is 7 nM; in data set [1] it was 30 nM; in [6], over 1000 nM; in data set [8] it was over 1000 nM; in data set [9], 43 nM; in data set [18] it was 10 nM. In [19], this molecule registered an IC50 of 8 nM. Besides, the half-life in data set [4] is 6.5 h; in [13], 1.4 h. For the same molecule, the AUC(0-inf) amounted to 2760 ng·h/mL in [5] and 9060 ng·h/mL in [7]. Besides, the EC50 in data set [16] was determined as 3 nM; in [20], 1 nM; in data set [22] it was 70 nM. Besides, the highest level in [10] (Cmax) was 874 ng/mL. In [11], this molecule gave a Vd of 0.8 L/kg. In data set [12], this molecule came in with a clearance of 6.5 mL/min/kg.

With `C/C(=N\OC(C)(C)C)c1ccc2[nH]c3c4c(c5c(c3c2c1)CNC5=O)-c1cn(C)nc1CC4`, the IC50 in [1] was 93 nM.

As to `C/C(=N\OCC(C)C)c1ccc2c(c1)c1c3c(c4c(c1n2CC(C)C)CCc1nn(C)cc1-4)C(=O)NC3`, the IC50 in [1] stood at 23 nM.

For the molecule `CCO/N=C(\C)c1ccc2c(c1)c1c3c(c4c(c1n2CC(C)C)CCc1nn(C)cc1-4)C(=O)NC3`, the IC50 in data set [1] came to 25 nM.
